Test results taken from US8293979B2, “Weed controller metabolism proteins, genes, thereof and use of the same” (Sumitomo Chemical Company, Limited, priority 2001, dated 2012).

Experiments:
Ivyleaf morningglory = assay: Herbicidal activity test, foliage treatment; type: in vivo, Ipomoea hederacea; design: key: 0: situations in which the condition of sprouting or vegetation at the time of examination of the plant utilized for the test was compared with and showed totally or substantially no difference with that of the untreated application; 10: situations in which the plant completely withered or the sprouting or vegetation was completely suppressed; conditions: sprayed onto the foliage of plants cultivated 10 days, investigated after 16 days in a greenhouse
Method: (§1) Soil was packed into a round plastic pot having a diameter of 10 cm and depth of 10 cm. Barnyardgrass, Blackgrass, Ivyleaf morningglory were seeded and cultivated in a greenhouse for 10 days. Five (5) parts of the test compound, 6 parts of sorpol3005X (Toho Chemical Company) and 89 parts of xylene were well mixed to produce an emulsion. A certain amount thereof was diluted with water containing 0.1% (v/v) of a sticking agent at a proportion of 1000 L for 1 hectare and was spread uniformly with a spray-gun onto the all sides of the foliage from above the plant cultivated in the above pot. After cultivating the plants for 16 days in a greenhouse, the herbicidal activity of the test compound was investigated.
(§2) In the above Tables 3 and 4, the strength of the herbicidal activity is shown stepwise as 0, 1, 2, 3, 4, 5, 6, 7, 8, 9, and 10.

[1] = test system: present invention protein (A13); assay: Detection of the ability to convert compound (II) to compound (III), E. coli pKSN474F extract; type: in vitro ADME, Streptomyces thermocoerulesces IFO 14273t; conditions: 3 ppm of compound (II) labeled with 14C, components A, B, 10 minutes at 30° C.
Method: Reaction solutions of 30 μl were prepared and maintained for 10 minutes at 30° C. The reaction solutions consisted of a 0.1M potassium phosphate buffer (pH7.0) containing 3 ppm of compound (II) labeled with ^14C, 2 mM of β-NADPH (hereinafter, referred to as “component A”) (Oriental Yeast Company), 2 mg/ml of a ferredoxin derived from spinach (hereinafter referred to as “component B”) (Sigma Company), 0.1 U/ml of ferredoxin reductase (hereinafter, referred to as “component C”) (Sigma Company) and 23 μl of the supernatant fraction recovered in Example 32(2). Similarly to Example 4(3), the reaction solutions after the maintenance were extracted with ethyl acetate and the extracted layers were TLC analyzed. […] A spot corresponding to compound (III) was detected from the reaction solution containing E. coli pKSN849AF extract. In contrast, such a spot was not detected from the reaction solution containing E. coli pKSN2 extract.
Reaction solutions of 30 μl were prepared and maintained for 10 minutes at 30° C. […] The reaction solutions after the maintenance were extracted with ethyl acetate and the extracted layers were TLC analyzed. […] A spot corresponding to compound (III) was detected from the reaction solution containing E. coli pKSN474F extract. In contrast, such a spot was not detected from the reaction solution containing E. coli pKSN2 extract.

[2] = test system: leaf pieces derived from the tobacco to which the present invention DNA (A1) was introduced; assay: Herbicidal damage of tobacco leaf pieces on MS agar medium containing compound (II); type: cell-based, Nicotiana tabacum strain SR1; conditions: MS agar medium containing 0.1 mg/L of compound (II), in the light at room temperature, 7th day of culturing
Method: Then, according to the method described in Manual for Gene Manipulation of Plant (by Hirofumi UCHIMIYA, Kodan-sha Scientific, 1992), the gene was introduced into tobacco. Agrobacterium strains bearing the above plasmids were each cultured at 28° C. overnight in LB medium containing 300 mg/L streptomycin, 100 mg/L rifampicin and 25 mg/L kanamycin, and then leaf pieces of tobacco (Nicotiana tabacum strain SR1) cultured sterilely were dipped in the liquid culture medium. The leaf pieces were planted and cultured at room temperature for 2 days in the light in MS agar medium (MS inorganic salts, MS vitamins, 3% sucrose and 0.8% agar; described in Murashige T. and Skoog F., Physiol. Plant. (1962) 15, p 473) containing 0.1 mg/L of naphthalene acetic acid and 1.0 mg/L of benzyl aminopurine. Then, the leaf pieces were washed with sterilized water and cultured for 7 days on MS agar medium containing 0.1 mg/L of naphthalene acetic acid, 1.0 mg/L of benzyl aminopurine and 500 mg/L of cefotaxime. Next, the leaf pieces were transplanted and cultured in MS agar medium containing 0.1 mg/L of naphthalene acetic acid, 1.0 mg/L of benzyl aminopurine, 500 mg/L of cefotaxime and 100 mg/L of kanamycin. The culture was conducted continuously for 4 months while transplanting the leaf pieces to fresh medium of the same composition at intervals of 4 weeks. […]

Blackgrass = assay: Herbicidal activity test, soil surface treatment; type: in vivo, Alopercurus myosuroides; design: key: 0: situations in which the condition of sprouting or vegetation at the time of examination of the plant utilized for the test was compared with and showed totally or substantially no difference with that of the untreated application; 10: situations in which the plant completely withered or the sprouting or vegetation was completely suppressed; conditions: 500 g/ha, sprayed onto the surface of the soil after seeding, investigated after 19 days in a greenhouse
Method: as §1, with “seeded.” for “seeded and cultivated in a greenhouse for 10 days.”, “surface” for “all sides”, “soil.” for “foliage from above the plant cultivated in the above pot.”, “19” for “16”, “activity” for “activity of the test compound”
as §2

C[C@@H](Oc1cc(-n2c(=O)cc(C(F)(F)F)n(C)c2=O)c(F)cc1Cl)C(=O)O [compound (II)]
Herbicidal Activity Ivyleaf Morningglory (Ivyleaf morningglory; 125 g/ha): 10
Herbicidal Activity Ivyleaf Morningglory (Ivyleaf morningglory; 500 g/ha): 10
spot corresponding to compound (III) labeled with 14C (TLC) [1]: detected
herbicidal damage of the leaf pieces [2]: grew continuously
Herbicidal Activity Blackgrass (Blackgrass): 10
